Reference: ChEMBL document CHEMBL1159345, “Eudistomins W and X, two new beta-carbolines from the micronesian tunicate Eudistoma sp” (2003)

Experiments:
Type in all cases: functional
Details in all cases: read-out: IZ
Candida albicans [1] = assay: Antimicrobial activity against Candida albicans at 10 ug/disk by agar diffusion assay
Bacillus subtilis [2] = assay: Antimicrobial activity against Bacillus subtilis at 5 ug/disk by agar diffusion assay
Bacillus subtilis [3] = assay: Antimicrobial activity against Bacillus subtilis at 10 ug/disk by agar diffusion assay
Staphylococcus aureus [4] = assay: Antimicrobial activity against Staphylococcus aureus at 5 ug/disk by agar diffusion assay
Staphylococcus aureus [5] = assay: Antimicrobial activity against Staphylococcus aureus at 10 ug/disk by agar diffusion assay
Escherichia coli [6] = assay: Antimicrobial activity against Escherichia coli at 5 ug/disk by agar diffusion assay
Escherichia coli [7] = assay: Antimicrobial activity against Escherichia coli at 10 ug/disk by agar diffusion assay
Candida albicans [8] = assay: Antimicrobial activity against Candida albicans at 5 ug/disk by agar diffusion assay

Row | SMILES | zone of inhibition at 10 µg/disc (Candida albicans [1]) [mm] | zone of inhibition at 5 µg/disc (Bacillus subtilis [2]) [mm] | zone of inhibition at 10 µg/disc (Bacillus subtilis [3]) [mm] | zone of inhibition at 5 µg/disc (Staphylococcus aureus [4]) [mm] | zone of inhibition at 10 µg/disc (Staphylococcus aureus [5]) [mm] | zone of inhibition at 5 µg/disc (Escherichia coli [6]) [mm] | zone of inhibition at 10 µg/disc (Escherichia coli [7]) [mm] | zone of inhibition at 5 µg/disc (Candida albicans [8]) [mm]
1 | Oc1ccc2[nH]c3c([C@@H](O)Cc4ccccc4)nccc3c2c1 [EUDISTOMIN W] | 13 | – | – | – | – | – | – | –
2 | CN(C)C(Cc1ccccc1)c1nccc2c1[nH]c1ccc(O)cc12 (centres undefined) [EUDISTOMIN X] | 18 | 17 | 18 | 11 | 12 | 15 | 20 | 17
